Columns and labels:
Type in all cases: cell-based
L6-myotubes [1] = test: Glucose uptake in differentiated L6-myotubes (3H-2-deoxy-glucose); conditions: agonist final concentration 1×10^−5, 3H-2-deoxy-glucose uptake
Method: L6-myoblasts were grown in Dulbecco's Modified Eagle's Medium (DMEM) containing 4,5 g/I glucose supplemented with 10% fetal bovine serum, 2 mM L-Glutamine, 50 U/ml penicillin, 50 μg/ml streptomycin and 10 mM HEPES. Cells were plated at 1×10^5 cells per ml in 24-well plates. After reaching 90% confluence the cells were grown in medium containing 2% FBS for 7 days where upon cells differentiated into myotubes. Differentiated L6-myotubes were serum-starved over night in medium containing 0.5% fatty-acid free BSA and stimulated with agonist, final concentration 1×10^−5. After 1 h 40 min cells were washed with warm, glucose free medium or PBS and another portion of agonist was added to glucose free medium. After 20 min the cells were exposed to 50 nM ^3H-2-deoxy-glucose for another 10 min before washed in ice cold glucose free medium or PBS and lysed in 0.2 M NaOH for 1 h in 60° C.

L6-myotubes [2] = test: Glucose uptake in the presence of the β2-adrenergic receptor antagonist ICI-118,551; conditions: differentiated L6-myotubes; compound 1×10^−5 M; ICI-118,551 1×10^−5 M
Method: L6-myoblasts were grown in Dulbecco's Modified Eagle's Medium (DMEM) containing 4,5 g/I glucose supplemented with 10% fetal bovine serum, 2 mM L-Glutamine, 50 U/ml penicillin, 50 μg/ml streptomycin and 10 mM HEPES. Cells were plated at 1×10^5 cells per ml in 24-well plates. After reaching 90% confluence the cells were grown in medium containing 2% FBS for 7 days where upon cells differentiated into myotubes. Differentiated L6-myotubes were serum-starved overnight in medium containing 0.5% fatty-acid free BSA and were incubated with the β2-adrenergic receptor antagonist ICI-118,551 at a final concentration of 1×10^−5 M for 30 min. The cells were stimulated with a compound of the invention, at a final concentration of 1×10^−5 M. After 1 h 40 min the cells were washed twice with warm, glucose free medium or PBS and additional portions of the compound of the invention and the antagonist were added. After 20 min the cells were exposed to 50 nM ^3H-2-deoxyglucose for 10 min before washed with ice cold glucose free medium or PBS three times and lysed with 0.2 M NaOH, 400 μL/well, for 1 h at 60° C. The cell lysate was mixed with 4 mL scintillation buffer (Emulsifier Safe, Perkin Elmer) and the radioactivity was detected in a β-counter (Tri-Carb 4810TR, Perkin Elmer). The activity for each compound is compared to that of isoproterenol.

L6-myotubes [3] = test: Measurement of intracellular cAMP levels (alpha screen cAMP kit); conditions: differentiated cells; agonist final concentration 1×10^−5, 15 min; 1 mM IBMX
Method: L6-myoblasts were grown in Dulbecco's Modified Eagle's Medium (DMEM) containing 4,5 g/I glucose supplemented with 10% fetal bovine serum, 2 mM L-Glutamine, 50 U/ml penicillin, 50 μg/ml streptomycin and 10 mM HEPES. Cells were plated at 1×10^5 cells per ml in 24-well plates. After reaching 90% confluence the cells were grown in medium containing 2% FBS for 7 days where upon cells differentiated into myotubes. Differentiated cells were serum-starved over night and stimulated with agonist, final concentration 1×10^−5, for 15 min in stimulation buffer (HBSS supplemented with 1% BSA, 5 mM HEPES and 1 mM IBMX, pH 7.4) The medium was then aspirated and to end the reaction 100 μL of 95% EtOH was added to each well of a 24-well plate and cells were kept in −20° C. over night. The EtOH was let to evaporate and 500 μL of lysis buffer (1% BSA, 5 mM HEPES and 0.3% Tween-20, pH 7.4) was added to each well before put in −80° C. for 30 min and then kept in −20° C. Intracellular cAMP levels were detected using an alpha screen cAMP kit (6760635D from Perkin Elmer). The activity for each compound is compared to that of isoproterenol.

For CC12CC(C1)[C@H]([C@@H](O)c1ccccc1F)N2.Cl [Example 11], the “Biological example 1: glucose uptake, activity compared to that of isoproterenol” value (L6-myotubes [1]) was “+++ (activity of more than 75% of that of isoproterenol)”, the “Biological example 3: glucose uptake in the presence of ICI-118,551, activity compared to that of isoproterenol” value (L6-myotubes [2]) was “− (less than 25%)” and the “Biological example 2: intracellular cAMP levels, activity compared to that of isoproterenol” value (L6-myotubes [3]) was “− (less than 25%)”.

Reference: patent publication US20240010620A1, “ARYLAZABICYCLO[2.1.1]HEXYLMETHANOLS DERIVATIVES AND MEDICAL USES THEREOF” (ATROGI AB, priority 2020, published 2024)
